Results as given in publication PMC6540285, “Evaluation of Protein Kinase Inhibitors with PLK4 Cross-Over Potential in a Pre-Clinical Model of Cancer” (International Journal of Molecular Sciences, 2019).
Read-outs that look alike come from different tables or passages of the source.

Columns and labels:
CSNK2A1 (CK2 alpha 1) = CSNK2A1 (CK2 alpha 1) (Homo sapiens, UniProt P68400); assay: SelectScreen kinase profiling, ZLYTE; assay type: biochemical
PRKG1 = PRKG1 (Homo sapiens, UniProt Q13976); assay: SelectScreen kinase profiling, ZLYTE; assay type: biochemical; details: PRKG1, 10 µM
LYN B = LYN B (Homo sapiens, UniProt P07948); assay: SelectScreen kinase profiling, ZLYTE; assay type: biochemical
PIP5K1B = PIP5K1B (Homo sapiens, UniProt O14986); assay: SelectScreen kinase profiling, Adapta; assay type: biochemical
PRKCG (PKC gamma) = PRKCG (PKC gamma) (Homo sapiens, UniProt P05129); assay: SelectScreen kinase profiling, ZLYTE; assay type: biochemical
GSK3A (GSK3 alpha) = GSK3A (GSK3 alpha) (Homo sapiens, UniProt P49840); assay: SelectScreen kinase profiling, ZLYTE; assay type: biochemical
MAP3K9 (MLK1) = MAP3K9 (MLK1) (Homo sapiens, UniProt P80192); assay: SelectScreen kinase profiling, ZLYTE; assay type: biochemical
DYRK3 = DYRK3 (Homo sapiens, UniProt O43781); assay: SelectScreen kinase profiling, ZLYTE; assay type: biochemical; details: DYRK3, 10 µM
CLK1 = CLK1 (Homo sapiens, UniProt P49759); assay: SelectScreen kinase profiling, ZLYTE; assay type: biochemical; details: CLK1, 10 µM
PIK3C2B (PI3K-C2 beta) = PIK3C2B (PI3K-C2 beta) (Homo sapiens, UniProt O00750); assay: SelectScreen kinase profiling, Adapta; assay type: biochemical
CDK11 (Inactive) = CDK11 (Inactive) (Homo sapiens, UniProt Q9BWU1); assay: SelectScreen kinase profiling, LanthaScreen binding
SPHK2 = SPHK2 (Homo sapiens, UniProt Q9NRA0); assay: SelectScreen kinase profiling, Adapta; assay type: biochemical; details: SPHK2, 10 µM
P450 2B6 = P450 2B6 (Homo sapiens, UniProt P20813)
P450 2B6, sequence (P20813 whole entry): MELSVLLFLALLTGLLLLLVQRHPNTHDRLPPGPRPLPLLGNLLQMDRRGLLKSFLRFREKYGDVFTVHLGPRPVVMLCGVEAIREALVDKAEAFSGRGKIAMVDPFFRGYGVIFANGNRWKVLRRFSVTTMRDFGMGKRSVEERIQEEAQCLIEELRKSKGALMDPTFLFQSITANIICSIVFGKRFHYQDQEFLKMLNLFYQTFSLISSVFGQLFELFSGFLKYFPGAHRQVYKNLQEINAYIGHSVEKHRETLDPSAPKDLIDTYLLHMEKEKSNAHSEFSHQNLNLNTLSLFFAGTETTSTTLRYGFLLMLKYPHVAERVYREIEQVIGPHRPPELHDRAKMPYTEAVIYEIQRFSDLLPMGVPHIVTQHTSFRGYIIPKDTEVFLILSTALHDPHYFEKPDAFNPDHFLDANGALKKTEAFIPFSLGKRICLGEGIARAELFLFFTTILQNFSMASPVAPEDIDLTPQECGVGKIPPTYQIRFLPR

ACVR1B (ALK4) = ACVR1B (ALK4) (Homo sapiens, UniProt P36896); assay: SelectScreen kinase profiling, ZLYTE; assay type: biochemical
FLT3 ITD = assay: SelectScreen kinase profiling, LanthaScreen binding; details: 10 µM
CSK = CSK (Homo sapiens, UniProt P41240); assay: SelectScreen kinase profiling, ZLYTE; assay type: biochemical
CAMKK1 (CAMKKA) = CAMKK1 (CAMKKA) (Homo sapiens, UniProt Q8N5S9); assay: SelectScreen kinase profiling, LanthaScreen binding
STK32B (YANK2) = STK32B (YANK2) (Homo sapiens, UniProt Q9NY57); assay: as above
CDK13/cyclin K = CDK13/cyclin K (Homo sapiens, UniProt Q14004); assay: as above; details: read-out: % Inhibition Avg
CDK13/cyclin K, sequence (Q14004 whole entry): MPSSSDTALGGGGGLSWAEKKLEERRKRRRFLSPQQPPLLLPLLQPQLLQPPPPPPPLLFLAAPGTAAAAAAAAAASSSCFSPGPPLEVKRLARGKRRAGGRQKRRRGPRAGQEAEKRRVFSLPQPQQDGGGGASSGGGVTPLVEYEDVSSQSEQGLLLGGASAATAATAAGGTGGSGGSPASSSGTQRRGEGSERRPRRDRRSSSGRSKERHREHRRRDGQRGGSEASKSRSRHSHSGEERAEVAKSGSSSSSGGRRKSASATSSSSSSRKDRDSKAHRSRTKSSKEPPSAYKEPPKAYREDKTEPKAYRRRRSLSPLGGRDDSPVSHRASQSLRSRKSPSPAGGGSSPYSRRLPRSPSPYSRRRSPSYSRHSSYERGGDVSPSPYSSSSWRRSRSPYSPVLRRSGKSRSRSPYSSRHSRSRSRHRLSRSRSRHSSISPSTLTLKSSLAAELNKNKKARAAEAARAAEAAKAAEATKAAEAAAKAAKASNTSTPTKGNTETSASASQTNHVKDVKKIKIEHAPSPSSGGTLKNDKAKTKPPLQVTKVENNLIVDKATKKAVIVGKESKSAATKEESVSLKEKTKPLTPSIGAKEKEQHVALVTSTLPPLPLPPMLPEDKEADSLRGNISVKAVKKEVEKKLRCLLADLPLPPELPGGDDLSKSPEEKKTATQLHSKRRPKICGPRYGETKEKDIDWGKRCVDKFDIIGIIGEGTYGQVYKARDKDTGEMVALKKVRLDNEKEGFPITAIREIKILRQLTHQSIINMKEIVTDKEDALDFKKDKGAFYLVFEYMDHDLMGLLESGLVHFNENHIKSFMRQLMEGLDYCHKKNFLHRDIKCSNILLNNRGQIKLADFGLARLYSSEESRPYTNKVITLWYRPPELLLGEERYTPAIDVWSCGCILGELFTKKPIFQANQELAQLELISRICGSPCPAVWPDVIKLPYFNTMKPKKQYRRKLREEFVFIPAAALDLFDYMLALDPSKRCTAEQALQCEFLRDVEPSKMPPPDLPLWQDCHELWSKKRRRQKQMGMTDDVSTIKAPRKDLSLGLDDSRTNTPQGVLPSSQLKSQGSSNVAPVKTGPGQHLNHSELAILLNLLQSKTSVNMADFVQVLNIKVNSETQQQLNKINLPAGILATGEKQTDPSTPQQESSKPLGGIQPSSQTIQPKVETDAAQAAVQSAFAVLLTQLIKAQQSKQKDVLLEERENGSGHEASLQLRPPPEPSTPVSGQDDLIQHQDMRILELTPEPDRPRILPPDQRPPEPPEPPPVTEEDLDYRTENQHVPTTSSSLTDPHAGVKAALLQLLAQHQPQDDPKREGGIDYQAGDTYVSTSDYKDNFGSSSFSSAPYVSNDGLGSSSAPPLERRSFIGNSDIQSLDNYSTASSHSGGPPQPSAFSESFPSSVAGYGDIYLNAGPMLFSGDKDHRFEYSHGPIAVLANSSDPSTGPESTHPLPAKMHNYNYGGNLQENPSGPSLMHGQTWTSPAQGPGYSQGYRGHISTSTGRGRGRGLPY
CDK13/cyclin K, sequence (O75909 whole entry partner): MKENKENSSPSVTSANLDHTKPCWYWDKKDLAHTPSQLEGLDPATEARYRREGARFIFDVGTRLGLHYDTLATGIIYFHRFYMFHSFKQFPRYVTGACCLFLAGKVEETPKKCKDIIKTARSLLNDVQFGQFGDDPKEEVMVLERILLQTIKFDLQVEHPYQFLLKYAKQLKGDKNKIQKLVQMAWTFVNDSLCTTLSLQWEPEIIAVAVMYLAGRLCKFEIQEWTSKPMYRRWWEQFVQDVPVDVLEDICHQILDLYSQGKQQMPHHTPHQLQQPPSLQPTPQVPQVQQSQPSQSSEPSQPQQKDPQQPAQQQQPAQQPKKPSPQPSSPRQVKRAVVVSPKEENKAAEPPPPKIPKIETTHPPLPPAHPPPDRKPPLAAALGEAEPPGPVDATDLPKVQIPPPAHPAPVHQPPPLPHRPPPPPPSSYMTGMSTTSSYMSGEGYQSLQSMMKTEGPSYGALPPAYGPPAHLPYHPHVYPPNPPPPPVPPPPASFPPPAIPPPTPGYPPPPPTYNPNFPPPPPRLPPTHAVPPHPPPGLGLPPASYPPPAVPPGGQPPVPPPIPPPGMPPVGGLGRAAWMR

LRRK2 = LRRK2 (Homo sapiens, UniProt Q5S007); assay: SelectScreen kinase profiling, Adapta; assay type: biochemical; details: LRRK2, 10 µM
IRAK1 = IRAK1 (Homo sapiens, UniProt P51617); assay: SelectScreen kinase profiling, Adapta; assay type: biochemical; details: IRAK1, 10 µM
IRAK1, sequence (P51617 whole entry): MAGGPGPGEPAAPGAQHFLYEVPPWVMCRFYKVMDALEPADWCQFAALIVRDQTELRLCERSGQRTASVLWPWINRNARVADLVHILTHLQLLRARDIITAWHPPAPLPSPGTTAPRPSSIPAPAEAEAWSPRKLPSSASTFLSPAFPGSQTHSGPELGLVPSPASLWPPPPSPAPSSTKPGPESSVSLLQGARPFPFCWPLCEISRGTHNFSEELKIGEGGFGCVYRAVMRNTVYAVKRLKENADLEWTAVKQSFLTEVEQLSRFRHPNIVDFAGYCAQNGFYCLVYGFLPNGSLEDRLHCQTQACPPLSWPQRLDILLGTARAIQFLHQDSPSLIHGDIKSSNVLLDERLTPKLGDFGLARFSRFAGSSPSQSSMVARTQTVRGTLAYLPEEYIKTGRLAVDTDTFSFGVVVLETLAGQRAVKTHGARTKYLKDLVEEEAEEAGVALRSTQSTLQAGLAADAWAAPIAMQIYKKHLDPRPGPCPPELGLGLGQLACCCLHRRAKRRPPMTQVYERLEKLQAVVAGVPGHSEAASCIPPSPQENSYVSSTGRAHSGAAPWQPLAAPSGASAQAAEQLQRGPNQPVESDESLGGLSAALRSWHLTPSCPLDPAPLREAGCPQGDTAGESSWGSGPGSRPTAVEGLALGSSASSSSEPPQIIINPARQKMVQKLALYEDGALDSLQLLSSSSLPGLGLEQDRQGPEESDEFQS

ABL1 H396P = ABL1 H396P (Homo sapiens, UniProt P00519, H396P); assay: SelectScreen kinase profiling, LanthaScreen binding
BT-16 cells = assay: PrestoBlue Cell Viability assay; assay type: cell-based; details: BT-16, read-out: PB: IC50 of the PrestoBlue Viability assay
Procedure: (§1) Cell viability was assessed using the Presto Blue™ Cell Viability reagent (Thermo Fisher Scientific, Carlsbad, CA, USA) following the manufacturer’s instructions. Cells were plated in 96-well plates at the same densities described above for the proliferation assay. The fluorescence was measured after 24, 48, 72, and 96 h at concentrations ranging from 0.001 to 10 µM of the inhibitor. All assays were performed in triplicate.

MON cells = assay: PrestoBlue Cell Viability assay; assay type: cell-based; details: read-out: PB: IC50 of the PrestoBlue Viability assay
Procedure: as §1

D283 cells [1] = assay: PrestoBlue Cell Viability assay; assay type: cell-based; details: D283, read-out: PB: IC50 of the PrestoBlue Viability assay
Procedure: as §1

CAMK2D (CaMKII delta) = CAMK2D (CaMKII delta) (Homo sapiens, UniProt Q13557); assay: SelectScreen kinase profiling, ZLYTE; assay type: biochemical
AMPK (A2/B2/G1) = AMPK (A2/B2/G1) (Homo sapiens, UniProt P54646); assay: SelectScreen kinase profiling, LanthaScreen binding
AMPK (A2/B2/G1), sequence (P54646 whole entry): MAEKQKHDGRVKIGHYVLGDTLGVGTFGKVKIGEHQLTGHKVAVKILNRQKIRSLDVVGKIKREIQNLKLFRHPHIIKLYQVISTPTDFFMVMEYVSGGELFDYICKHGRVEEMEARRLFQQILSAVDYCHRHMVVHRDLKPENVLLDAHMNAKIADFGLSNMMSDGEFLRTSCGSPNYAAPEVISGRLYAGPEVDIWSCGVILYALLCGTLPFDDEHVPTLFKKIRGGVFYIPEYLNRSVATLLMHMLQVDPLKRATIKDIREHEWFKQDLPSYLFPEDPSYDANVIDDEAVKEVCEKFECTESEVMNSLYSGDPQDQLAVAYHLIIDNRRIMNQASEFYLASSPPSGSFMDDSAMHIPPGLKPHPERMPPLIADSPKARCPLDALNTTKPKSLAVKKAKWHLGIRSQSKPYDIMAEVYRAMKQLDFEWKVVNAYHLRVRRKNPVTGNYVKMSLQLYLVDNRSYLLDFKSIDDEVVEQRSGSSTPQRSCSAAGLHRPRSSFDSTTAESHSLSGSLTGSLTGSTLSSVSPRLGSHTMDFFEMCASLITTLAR
AMPK (A2/B2/G1), sequence (O43741 whole entry partner): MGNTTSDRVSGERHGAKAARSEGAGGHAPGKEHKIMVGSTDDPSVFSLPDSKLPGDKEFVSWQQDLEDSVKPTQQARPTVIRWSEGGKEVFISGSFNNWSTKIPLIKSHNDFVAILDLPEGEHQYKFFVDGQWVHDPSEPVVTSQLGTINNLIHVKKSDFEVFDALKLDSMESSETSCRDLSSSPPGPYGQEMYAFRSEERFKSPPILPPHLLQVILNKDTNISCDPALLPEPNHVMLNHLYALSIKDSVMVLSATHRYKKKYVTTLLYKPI
AMPK (A2/B2/G1), sequence (P54619 whole entry partner): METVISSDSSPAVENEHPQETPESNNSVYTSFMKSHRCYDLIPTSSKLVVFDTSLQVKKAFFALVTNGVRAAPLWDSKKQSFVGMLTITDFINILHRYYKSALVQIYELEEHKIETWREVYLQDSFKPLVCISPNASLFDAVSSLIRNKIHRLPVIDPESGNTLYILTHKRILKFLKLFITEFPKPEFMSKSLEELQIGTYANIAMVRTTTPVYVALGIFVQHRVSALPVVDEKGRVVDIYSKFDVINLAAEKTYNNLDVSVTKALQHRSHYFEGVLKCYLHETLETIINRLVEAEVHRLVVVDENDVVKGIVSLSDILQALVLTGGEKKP

D283 cells [2] = assay type: cell-based; details: D283, read-out: MTT: IC50 of the proliferation assay
PRKACA (PKA) = PRKACA (PKA) (Homo sapiens, UniProt P17612); assay: SelectScreen kinase profiling, ZLYTE; assay type: biochemical
PDK1 = PDK1 (Homo sapiens, UniProt O15530); assay: SelectScreen kinase profiling, ZLYTE; assay type: biochemical; details: PDK1, 10 µM
PI4KA (PI4K alpha) = PI4KA (PI4K alpha) (Homo sapiens, UniProt P42356); assay: SelectScreen kinase profiling, Adapta; assay type: biochemical
[3] = target: MAP2K1 (MEK1) S218D S222D (Homo sapiens, UniProt Q02750, S218D/S222D); assay: SelectScreen kinase profiling, LanthaScreen binding
FGFR2 = FGFR2 (Homo sapiens, UniProt P21802); assay: SelectScreen kinase profiling, ZLYTE; assay type: biochemical; details: FGFR2, 10 µM
MAP2K5 (MEK5) = MAP2K5 (MEK5) (Homo sapiens, UniProt Q13163); assay: SelectScreen kinase profiling, LanthaScreen binding
CSNK1D (CK1 delta) = CSNK1D (CK1 delta) (Homo sapiens, UniProt P48730); assay: SelectScreen kinase profiling, ZLYTE; assay type: biochemical
CSNK1D (CK1 delta), sequence (P48730 whole entry): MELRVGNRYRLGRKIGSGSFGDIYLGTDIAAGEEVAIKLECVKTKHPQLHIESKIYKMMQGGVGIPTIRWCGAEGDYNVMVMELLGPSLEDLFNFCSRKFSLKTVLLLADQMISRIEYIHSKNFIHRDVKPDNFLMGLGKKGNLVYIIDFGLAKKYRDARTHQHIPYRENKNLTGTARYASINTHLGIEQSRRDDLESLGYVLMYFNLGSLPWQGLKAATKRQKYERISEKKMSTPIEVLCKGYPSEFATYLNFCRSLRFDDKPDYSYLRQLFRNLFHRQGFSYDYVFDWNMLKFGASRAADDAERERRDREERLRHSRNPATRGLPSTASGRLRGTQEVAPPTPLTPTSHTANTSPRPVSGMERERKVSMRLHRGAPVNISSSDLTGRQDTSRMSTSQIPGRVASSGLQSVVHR

MAP2K1 (MEK1) = MAP2K1 (MEK1) (Homo sapiens, UniProt Q02750); assay: SelectScreen kinase profiling, LanthaScreen binding
FGFR1 = FGFR1 (Homo sapiens, UniProt P11362); assay: SelectScreen kinase profiling, ZLYTE; assay type: biochemical; details: FGFR1, 10 µM
FLT3 = FLT3 (Homo sapiens, UniProt P36888); assay: SelectScreen kinase profiling, ZLYTE; assay type: biochemical; details: FLT3, 10 µM

SMILES: O=C(c1ccc(/C=C/c2n[nH]c3ccccc23)cc1)N1CCNCC1 [KW-2449]
- inhibition at 10 µM (CSNK2A1 (CK2 alpha 1)): 18%
- inhibition at 10 µM (PRKG1): 77%
- inhibition at 10 µM (LYN B): 94%
- inhibition at 10 µM (PIP5K1B): 32%
- inhibition at 10 µM (PRKCG (PKC gamma)): 81%
- inhibition at 10 µM (GSK3A (GSK3 alpha)): 63%
- inhibition at 10 µM (MAP3K9 (MLK1)): 102%
- inhibition at 10 µM (DYRK3): 86%
- inhibition at 10 µM (CLK1): 99%
- inhibition at 10 µM (PIK3C2B (PI3K-C2 beta)): 9%
- inhibition at 10 µM (CDK11 (Inactive)): 29%
- inhibition at 10 µM (SPHK2): 7%
- IC50 (P450 2B6): 9.8 µM
- inhibition at 10 µM (ACVR1B (ALK4)): 39%
- % Inhibition Avg (FLT3 ITD): 5%
- inhibition at 10 µM (CSK): 71%
- inhibition at 10 µM (CAMKK1 (CAMKKA)): 69%
- inhibition at 10 µM (STK32B (YANK2)): 61%
- inhibition at 10 µM (CDK13/cyclin K): 70%
- inhibition at 10 µM (LRRK2): 100%
- inhibition at 10 µM (IRAK1): 99%
- inhibition at 10 µM (ABL1 H396P): 78%
- IC50 (BT-16 cells): 1.84 µM
- IC50 (MON cells): 1.74 µM
- IC50 (D283 cells [1]): > 10 µM
- inhibition at 10 µM (CAMK2D (CaMKII delta)): 96%
- inhibition at 10 µM (AMPK (A2/B2/G1)): 75%
- IC50 (D283 cells [2]): 8.05 µM
- inhibition at 10 µM (PRKACA (PKA)): 76%
- inhibition at 10 µM (PDK1): 77%
- inhibition at 10 µM (PI4KA (PI4K alpha)): 7%
- inhibition at 10 µM [3]: 66%
- inhibition at 10 µM (FGFR2): 97%
- inhibition at 10 µM (MAP2K5 (MEK5)): 84%
- inhibition at 10 µM (CSNK1D (CK1 delta)): 53%
- inhibition at 10 µM (MAP2K1 (MEK1)): 54%
- inhibition at 10 µM (FGFR1): 96%
- inhibition at 10 µM (FLT3): 100%
